Patent publication US20150223675A1, “LUMINAL ADMINISTRATION OF TAG MOLECULES FOR DIAGNOSTIC APPLICATIONS” (GIVEN IMAGING LTD., priority 2012, published 2015)
Values joined by “and” are separate entries in the source; they are usually repeats but may differ in a detail not shown here. Equal values may be shown once.

Assays:
human colorectal tumors = test: Luminal (rectal, minicolonoscope) administration of dye to orthotopic mice; fluorescence of tumor and surrounding colon tissue by fluorescent camera, with histopathology; format: in vivo, mouse; details: for fluorescent labeling of tumor exposed to the colon lumen: tumor confirmed by histopathology
Procedure: Orthotopic mice with human colorectal tumors in their colons were used for […] administration of the IR-783 derivative—IR-783-S-PH-COOH. 4 μg of the IR-783-S-PH-COOH dissolved in 200 μl PBS were introduced into the colon of the mouse via minicolonoscope inserted through the rectum. The IR-783-S-PH-COOH solution was incubated in the colon for 20 minutes and then washed out with 5 ml PBS inserted through the rectum. Four hours later, mice were sacrificed and the fluorescence of the tumor and the surrounding colon tissue was measured by a fluorescent camera setup. Histopathological examination was performed on paraffin fixed colonic tissue specimens.
Orthotopic mice with human colorectal tumors in their colons were used for luminal administration of IR-783. 4 μg of IR-783 dissolved in 200 μl PBS were introduced into the colon of the mouse via a minicolonoscope inserted through the rectum. The IR-783 solution was incubated in the colon for 20 minutes and then washed out with 5 ml of PBS. 4 h later, the mice were sacrificed and the fluorescence of the tumor and the surrounding colon was measured by a fluorescent camera setup. Histopathological examination was performed on paraffin fixed colonic tissue specimens.

[1] = Gastric gavage of dye to mice; organ fluorescence (liver, spleen, heart, lungs, kidneys, brain) by fluorescent camera; format: in vivo; details: 5 hours later
Procedure: 4 μg of IR-783 dissolved in 200 μl PBS were introduced into mice stomach by gastric gavage. Five hours later, the mice were sacrificed and liver, spleen, heart, lungs, kidneys and brain were collected and measured for fluorescence by a fluorescent camera setup. […] Grey levels of the organs are indicated by the numbers on the fluorescent pictures next to the imaged organs, e.g., grey level in the liver was 4000 in two mice and 2500 in a third mouse, and grey levels in the kidneys were 3500, 200 and 1200, respectively.

tumors = details: 24 hours after dye administration by injection; prior art; cited from earlier work
[2] = 4 μg in 200 μl PBS into colon, 20 min incubation, 4 h later
[3] = 4 μg in 200 μl PBS by gastric gavage, individual mice

| organs in which fluorescence was detected ([1]; 4 μg by gastric gavage, liver, spleen, heart, lungs, kidneys, brain examined) | grey level in the liver [1, 3] | grey levels in the kidneys [1, 3] | Compound | fluorescent labeling of tumor exposed to the colon lumen (human colorectal tumors; [2]) | fluorescent labeling of tumors developed below the murine mucosal layer (not exposed to colon lumen) (human colorectal tumors; 4 μg into colon, 20 min incubation, 4 h later, FIG. 6B) | dye concentration in tumors compared to normal body tissue (tumors) | tumor to background ratio (human colorectal tumors; 4 μg in 200 μl PBS into colon, 20 min incubation, washed out, measured 4 h later, 1 second exposure, histopathologically confirmed tumor) | fluorescent labeling of non-cancerous lymphatic tissue region (human colorectal tumors; 4 μg into colon, 4 h later, suspected region with no tumor cells) |
| --- | --- | --- | --- | --- | --- | --- | --- | --- |
| detected in the liver and kidneys | 4000 and 2500 | 3500 and 200 and 1200 | CC1(C)C(=CC=C2CCCC(C=CC3=[N+](CCCCS(=O)(=O)[O-])c4ccccc4C3(C)C)=C2Cl)N(CCCCS(=O)(=O)[O-])c2ccccc21.[Na+] [IR-783] | intensely labeled | not labeled | much higher in tumors | – | – |
| – | – | – | IR-783-S-PH-COOH | intensely labeled | – | – | 60 | not labeled |
